Measured values: patent publication US20240300942A1, “SMALL MOLECULES FOR TREATEMENT OF CANCER” (VRise Therapeutics Inc., priority 2021, published 2024)

Assays:
NCI-H358 cell line = assay: In vitro cell proliferation assay (CCK-8) in NCI-H358 cell line; format: cell-based; details: Homo sapiens, TC2: Test Concentration of 10 uM, 72 hours
Experimental: (§1) Growth inhibition assays is to be carried out using 10% FBS supplemented media. Cells are to be seeded at a desired concentration of 1,500-6,000 cells/well in a 96-well plate. Test compounds at a concentration range from 1 to 30 uM will be added after 24 hours. Growth will be assessed using the CCK-8 kit for measuring reduction at 0 h (prior to the addition of the test compound) and 72 hours after the addition of test compound. Absorbance read on a BIO-RAD iMark Microplate or any equivalent microplate reader at a wavelength of 450 nm. Data was analysed and percent inhibition due to the test compound compared to the control is calculated accordingly.

MIAPACA-2 cell line = assay: In vitro cell proliferation assay (CCK-8) in MIAPACA-2 cell line; format: cell-based; details: Homo sapiens, MIA PaCa-2, 72 hours; for inhibition at 3 µM: TC1: Test Concentration of 3 uM; for inhibition at 10 µM: TC2: Test Concentration of 10 uM
Experimental: as §1

Structure (SMILES) | inhibition at 10 µM (NCI-H358 cell line) [%] | inhibition at 3 µM (MIAPACA-2 cell line) [%] | inhibition at 10 µM (MIAPACA-2 cell line) [%]
C=CC(=O)N1CCN(c2nc(N3CCCCC3)c(C#N)c3c2CCN(c2cccc4ccccc24)C3)CC1 [Ex 44, 1-(4-acryloylpiperazin-1-yl)-6-(naphthalen-1-yl)-3-(piperidin-1-yl)-5,6,7,8-tetrahydro-2,6-naphthyridine-4-carbonitrile] | ≤ 25 | – | –
C=CC(=O)N1CCN(c2nc(OC[C@@H]3CCCN3C)c(C#N)c3c2CCN(c2cccc4cccc(Cl)c24)C3)CC1 [Ex 8, (S)-1-(4-acryloylpiperazin-1-yl)-6-(8-chloronaphthalen-1-yl)-3-((1-methylpyrrolidin-2-yl)methoxy)-5,6,7,8-tetrahydro-2,6-naphthyridine-4-carbonitrile] | – | 25 to 50 | 75 to 100
C=CC(=O)N1CCN(c2nc(-c3ccnc(F)c3)c(C#N)c3c2CCN(Cc2ccccc2)C3)CC1 [Ex 43, 1-(4-acryloylpiperazin-1-yl)-6-benzyl-3-(2-fluoropyridin-4-yl)-5,6,7,8-tetrahydro-2,6-naphthyridine-4-carbonitrile] | 25 to 50 | – | –
C=CC(=O)N1CCN(c2nc(N3CCOCC3)c(C#N)c3c2CCN(Cc2ccccc2)C3)CC1 [Ex 34, 1-(4-acryloylpiperazin-1-yl)-6-benzyl-3-morpholino-5,6,7,8-tetrahydro-2,6-naphthyridine-4-carbonitrile] | 25 to 50 | – | –
C=CC(=O)N1CCN(c2nc(OC[C@@H]3CCCN3C)c(C#N)c3c2CCN(c2cncc4ccccc24)C3)CC1 [Ex 21, (S)-1-(4-acryloylpiperazin-1-yl)-6-(isoquinolin-4-yl)-3-((1-methylpyrrolidin-2-yl)methoxy)-5,6,7,8-tetrahydro-2,6-naphthyridine-4-carbonitrile] | – | 50 to 75 | 50 to 75
C=C(F)C(=O)N1CCN(c2nc(OC[C@@H]3CCCN3C)c(C#N)c3c2CCN(c2cccc4cccc(Cl)c24)C3)CC1C (stereo partly drawn) [Ex 12, 6-(8-chloronaphthalen-1-yl)-1-(4-(2-fluoroacryloyl)-3-methylpiperazin-1-yl)-3-(((S)-1-methylpyrrolidin-2-yl)methoxy)-5,6,7,8-tetrahydro-2,6-naphthyridine-4-carbonitrile] | – | 50 to 75 | 75 to 100
C=CC(=O)N1CCN(c2nc(OC[C@@H]3CCCN3C)c(C#N)c3c2CCN(c2cc(O)cc4ccccc24)C3)CC1CC#N (stereo partly drawn) [Ex 19, 1-(4-acryloyl-3-(cyanomethyl)piperazin-1-yl)-6-(3-hydroxynaphthalen-1-yl)-3-(((S)-1-methylpyrrolidin-2-yl)methoxy)-5,6,7,8-tetrahydro-2,6-naphthyridine-4-carbonitrile] | – | 75 to 100 | 75 to 100
C=CC(=O)N1CCN(c2nc(OC[C@@H]3CCCN3C)c(C#N)c3c2CCN(c2cccc4ccccc24)C3)C[C@@H]1CC#N [Ex 17, 1-((S)-4-acryloyl-3-(cyanomethyl)piperazin-1-yl)-3-(((S)-1-methylpyrrolidin-2-yl)methoxy)-6-(naphthalen-1-yl)-5,6,7,8-tetrahydro-2,6-naphthyridine-4-carbonitrile] | – | 75 to 100 | 75 to 100
C=C(F)C(=O)N1CCN(c2nc(OC[C@@H]3CCCN3C)c(C#N)c3c2CCN(c2ncnc4ccccc24)C3)CC1 [Ex 10, (S)-1-(4-(2-fluoroacryloyl)piperazin-1-yl)-3-((1-methylpyrrolidin-2-yl)methoxy)-6-(quinazolin-4-yl)-5,6,7,8-tetrahydro-2,6-naphthyridine-4-carbonitrile] | – | 75 to 100 | 75 to 100
C=CC(=O)N1CCN(c2nc(N3CCN(C)CC3)c(C#N)c3c2CCN(Cc2ccccc2)C3)CC1CC#N (centres unmarked) [Ex 36, 1-(4-acryloyl-3-(cyanomethyl)piperazin-1-yl)-6-benzyl-3-(4-methylpiperazin-1-yl)-5,6,7,8-tetrahydro-2,6-naphthyridine-4-carbonitrile] | 25 to 50 | – | –
C=CC(=O)N1CCN(c2nc(N3CCN(C(=O)C=C)CC3)c3c(c2C#N)CN(Cc2ccccc2)CC3)CC1 [Ex 32, 1,3-bis(4-acryloylpiperazin-1-yl)-6-benzyl-5,6,7,8-tetrahydro-2,6-naphthyridine-4-carbonitrile] | 50 to 75 | – | –
C=CC(=O)N1CCN(c2nc(N3CC(C)OC(C)C3)c(C#N)c3c2CCN(c2cccc4ccccc24)C3)C[C@H]1CC#N (single isomer, unassigned) [Ex 15] | – | 75 to 100 | 75 to 100
C=CC(=O)N1CCN(c2nc(N3CC(C)OC(C)C3)c(C#N)c3c2CCN(c2cccc4ccccc24)C3)C[C@@H]1CC#N (single isomer, unassigned) [Ex 14] | – | 75 to 100 | 75 to 100
C=CC(=O)N1CCN(c2nc(OC[C@@H]3CCCN3C)c(C#N)c3c2CCN(c2cc(O)cc4ccccc24)C3)CC1 [Ex 9, (S)-1-(4-acryloylpiperazin-1-yl)-6-(3-hydroxynaphthalen-1-yl)-3-((1-methylpyrrolidin-2-yl)methoxy)-5,6,7,8-tetrahydro-2,6-naphthyridine-4-carbonitrile] | – | 75 to 100 | 75 to 100
C=CC(=O)N1CCN(c2nc(N3CCS(=O)(=O)CC3)c(C#N)c3c2CCN(c2cccc4ccccc24)C3)CC1 [Ex 1, 1-(4-acryloylpiperazin-1-yl)-3-(1,1-dioxidothiomorpholino)-6-(naphthalen-1-yl)-5,6,7,8-tetrahydro-2,6-naphthyridine-4-carbonitrile] | – | – | 75 to 100
C=CC(=O)N1CCN(c2nc(N3CC(C)OC(C)C3)c(C#N)c3c2CCN(c2cccc4ccccc24)C3)CC1CC#N (racemic) [Ex 13, 1-(4-acryloyl-3-(cyanomethyl)piperazin-1-yl)-3-(2,6-dimethylmorpholino)-6-(naphthalen-1-yl)-5,6,7,8-tetrahydro-2,6-naphthyridine-4-carbonitrile] | – | 75 to 100 | 75 to 100
C=CS(=O)(=O)N1CCN(c2nc(OC[C@@H]3CCCN3C)c(C#N)c3c2CCN(c2cccc4cccc(Cl)c24)C3)CC1 [Ex 11, (S)-6-(8-chloronaphthalen-1-yl)-3-((1-methylpyrrolidin-2-yl)methoxy)-1-(4-(vinylsulfonyl)piperazin-1-yl)-5,6,7,8-tetrahydro-2,6-naphthyridine-4-carbonitrile] | – | 75 to 100 | 75 to 100
C=C(F)C(=O)N1CCN(c2nc(OC[C@@H]3CCCN3C)c(C#N)c3c2CCN(c2cccc4ccccc24)C3)CC1CC#N (stereo partly drawn) [Ex 20, 1-(3-(cyanomethyl)-4-(2-fluoroacryloyl)piperazin-1-yl)-3-(((S)-1-methylpyrrolidin-2-yl)methoxy)-6-(naphthalen-1-yl)-5,6,7,8-tetrahydro-2,6-naphthyridine-4-carbonitrile] | – | 50 to 75 | 75 to 100
C=CC(=O)N1CCN(c2nc(OC[C@@H]3CCCN3C)c(C#N)c3c2CCN(c2cccc4ccccc24)C3)C[C@H]1CC#N [Ex 18, 1-((R)-4-acryloyl-3-(cyanomethyl)piperazin-1-yl)-3-(((S)-1-methylpyrrolidin-2-yl)methoxy)-6-(naphthalen-1-yl)-5,6,7,8-tetrahydro-2,6-naphthyridine-4-carbonitrile] | – | 75 to 100 | 75 to 100
